Key:
[1] = target: T1, Der p 1 (Dermatophagoides pteronyssinus, UniProt P08176); assay type: biochemical; settings: Figure 5A, in words
T1 construct: from tissue; host or cells: spent culture medium of Dermatophagoides pteronyssinus (native HDM extract); ammonium sulfate precipitation, size exclusion, SBTI column, Resource Q
T1 sequence (P08176 99-320): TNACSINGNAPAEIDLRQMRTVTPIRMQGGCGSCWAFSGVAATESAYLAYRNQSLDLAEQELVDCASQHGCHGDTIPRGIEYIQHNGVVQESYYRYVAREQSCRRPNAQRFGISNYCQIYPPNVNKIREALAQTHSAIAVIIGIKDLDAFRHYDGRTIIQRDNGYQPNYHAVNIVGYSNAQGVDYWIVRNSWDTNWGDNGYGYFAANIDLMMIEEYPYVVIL
Experimental: Assays were assembled in 96-well plate format using a PerkinElmer Multiprobe II Plus HTS EX robot (PerkinElmer, UK). […] Reactions were initiated by the addition of 10 μL Der p 1 dissolved in the reaction buffer at 2.5 μg/mL and followed at 30 °C by measurement of fluorescence (excitation/emission 330/420 nm) using either a Fusion Alpha-FP or Envision plate reader fitted with a temperature-controlled carrier (PerkinElmer, UK).
Inhibitor kinetics were analyzed from progress curves. For reversible inhibitors, IC50 values were calculated conventionally.

[2] = system: unsensitized BN rats; test: HDM extract challenge in unsensitized (naive) BN rats, duration of protection; assay type: in vivo; settings: for performance in vivo (maximum inhibition of the eosinophil response, Figure 5A): focused library, durability of inhibition studies
[3] = all other time points than those stated not significant, 50:1 molar equivalents
[4] = time points other than the stated exceptions, 50:1 molar equivalents i.t. aerosol
[5] = all time points, naive BN rats, HDM extract 10 µg Der p 1, single i.t. aerosol dose 50:1 molar equivalents
[6] = all time points, naive BN rats, HDM extract 10 µg Der p 1, single i.t. aerosol dose 50:1 molar equivalents to Der p 1

Compound | potency against the target molecule in vitro [1] | performance in vivo (maximum inhibition of the eosinophil response, Figure 5A) [2] | BAL neutrophil response: significance of effect (P<0.05) ([2]; pre-treatment at 60 min) | Reduction in BAL eosinophil response: significance of inhibition (P<0.05) [2, 4] | BAL neutrophil response: significance of effect (P<0.05) [2, 5] | Reduction in BAL eosinophil response: significance of inhibition (P<0.05) [2, 6] | also measured
3-((3S,6S,9S)-3-benzyl-9-isopropyl-6-methyl-1,4,7,10,11-pentaoxo-1-phenyl-2,5,8,12-tetraazatridecan-13-yl)benzoic acid [Compound 7] | less potent than others | effective | not significant | significant |  |  | BAL neutrophil response: significance of effect (P<0.05) [2, 3]: significant; BAL neutrophil response: significance of effect (P<0.05) ([2]; pre-treatment at 120 min): not significant; BAL neutrophil response: significance of effect (P<0.05) ([2]; pre-treatment at 360 min): not significant
CC(C)[C@H](NC(=O)[C@H](C)NC(=O)[C@@H](NC(=O)c1ccccc1)C(C)(C)C)C(=O)C(=O)NCC(=O)N1CCc2ccccc2C1 [Compound 3, N-[(S)-1-((S)-1-{(S)-1-[2-(3,4-dihydro-1H-isoquinolin-2-yl)-2-oxo-ethylaminooxalyl]-2-methyl-propylcarbamoyl}-ethylcarbamoyl)-2,2-dimethyl-propyl]-benzamide] |  |  |  |  | significant | significant | 
CC(C)[C@H](NC(=O)[C@H](C)NC(=O)[C@H](Cc1ccccc1)NC(=O)c1ccccc1)C(=O)C(=O)NCC(=O)N1CC[N+](C)(C)CC1.O=C[O-] [Compound 4, 4-(2-{(S)-3-[(S)-2-((S)-2-benzoylamino-3-phenyl-propionylamino)-propionylamino]-4-methyl-2-oxo-pentanoylamino}-acetyl)-1,1-dimethyl-piperazin-1-ium formate] | less potent than others | effective |  |  | significant | significant | 
CC(C)[C@H](NC(=O)[C@H](C)NC(=O)[C@@H](NC(=O)c1ccnc2ccccc12)C(C)(C)C)C(=O)C(=O)NCc1ccccc1 [Compound 5, quinoline-4-carboxylic acid {(S)-1-[(S)-1-((S)-1-benzylaminooxalyl-2-methyl-propylcarbamoyl)-ethylcarbamoyl]-2,2-dimethyl-propyl}-amide] | less potent than others | effective |  |  | significant | significant | onset: temporal separation between drug dosing and HDM challenge required to achieve 50% inhibition of the eosinophil response ([2]; estimated, Figure 5D–F, in words): slower onset
CC(C)[C@H](NC(=O)[C@H](C)NC(=O)[C@H](Cc1ccccc1)NC(=O)c1cccc2ccccc12)C(=O)C(=O)NCC(=O)N1CCN(C)CC1 [Compound 8, N-((S)-1-(((S)-1-(((S)-4-methyl-1-((2-(4-methylpiperazin-1-yl)-2-oxoethyl)amino)-1,2-dioxopentan-3-yl)amino)-1-oxopropan-2-yl)amino)-1-oxo-3-phenylpropan-2-yl)-1-naphthamide] | less potent than others | effective | not significant |  |  | significant | BAL neutrophil response: significance of effect (P<0.05) [2, 3]: significant
CNC(=O)c1ccc(CNC(=O)C(=O)[C@@H](NC(=O)[C@H](C)NC(=O)[C@@H](N2Cc3ccccc3C2=O)C(C)(C)C)C(C)C)cc1 [Compound 9, 4-[((S)-3-{(S)-2-[(S)-3,3-dimethyl-2-(1-oxo-1,3-dihydro-isoindol-2-yl)-butyrylamino]-propionylamino}-4-methyl-2-oxo-pentanoylamino)-methyl]-N-methyl-benzamide] |  |  |  | significant | not significant |  | 
CC(C)[C@H](NC(=O)[C@H](C)NC(=O)[C@@H](NC(=O)c1ccnc2ccccc12)C(C)(C)C)C(=O)C(=O)NCC(=O)N1CCN(C(C)C)CC1 [Compound 10, quinoline-4-carboxylic acid [(S)-1-((S)-1-{(S)-1-[2-(4-isopropyl-piperazin-1-yl)-2-oxo-ethylaminooxalyl]-2-methyl-propylcarbamoyl}-ethylcarbamoyl)-2,2-dimethyl-propyl]-amide] | potent | performed less satisfactorily |  | significant | not significant |  | 
CC(C)[C@H](NC(=O)[C@H](C)NC(=O)[C@@H](NC(=O)c1ccncc1)C(C)(C)C)C(=O)C(=O)NC1CCCCC1 [Compound 12, N-{(S)-1-[(S)-1-((S)-1-cyclohexylaminooxalyl-2-methyl-propylcarbamoyl)-ethylcarbamoyl]-2,2-dimethyl-propyl}-isonicotinamide] |  |  |  |  |  | significant | 
CC(C)[C@H](NC(=O)[C@H](C)NC(=O)[C@H](Cc1ccccc1)NC(=O)c1ccccc1)C(=O)C(=O)NCC(=O)N1CCOCC1 [Compound 13, N-((S)-1-{(S)-1-[(S)-2-methyl-1-(2-morpholin-4-yl-2-oxo-ethylaminooxalyl)-propylcarbamoyl]-ethylcarbamoyl}-2-phenyl-ethyl)-benzamide] |  |  | not significant |  |  | significant | BAL neutrophil response: significance of effect (P<0.05) ([2]; pre-treatment at 240 min): not significant
CC(C)[C@H](NC(=O)[C@H](C)NC(=O)[C@@H](NC(=O)c1ccccc1C(=O)O)C(C)(C)C)C(=O)C(=O)NCC(=O)N1CCN(C)CC1 [Compound 14, 2-(((S)-3,3-dimethyl-1-(((S)-1-(((S)-4-methyl-1-((2-(4-methylpiperazin-1-yl)-2-oxoethyl)amino)-1,2-dioxopentan-3-yl)amino)-1-oxopropan-2-yl)amino)-1-oxobutan-2-yl)carbamoyl)benzoic acid] |  |  |  |  | significant | significant | 
CC(C)[C@H](NC(=O)[C@H](C)NC(=O)[C@@H](NC(=O)c1ccccc1)C12CC3CC(CC(C3)C1)C2)C(=O)C(=O)NCC(=O)N1CCN(C)CC1 [Compound 15, N-[(S)-adamantan-1-yl-((S)-1-{(S)-2-methyl-1-[2-(4-methyl-piperazin-1-yl)-2-oxo-ethylaminooxalyl]-propylcarbamoyl}-ethylcarbamoyl)-methyl]-benzamide] |  | useful in vivo activity |  |  | significant | significant | 
N-((S)-1-(((S)-1-(((S)-1-(cyclohexylamino)-4-methyl-1,2-dioxopentan-3-yl)amino)-1-oxopropan-2-yl)amino)-3,3-dimethyl-1-oxobutan-2-yl)isoquinoline-4-carboxamide [Compound 6] |  |  | not significant | significant |  |  | BAL neutrophil response: significance of effect (P<0.05) [2, 3]: significant; BAL neutrophil response: significance of effect (P<0.05) ([2]; pre-treatment at 120 min): not significant
